According to publication PMC3948353 (Chemistry & biology, 2013):

Assays:
[1] = target: T1, arylacetamide deacetylase-like 1 (AADACL1) (Homo sapiens, UniProt Q6PIU2); experiment: hydrolysis of exogenous HAG in human platelet lysate, blocked by JW480; assay type: cell-based
T1 sequence (Q6PIU2 1-408): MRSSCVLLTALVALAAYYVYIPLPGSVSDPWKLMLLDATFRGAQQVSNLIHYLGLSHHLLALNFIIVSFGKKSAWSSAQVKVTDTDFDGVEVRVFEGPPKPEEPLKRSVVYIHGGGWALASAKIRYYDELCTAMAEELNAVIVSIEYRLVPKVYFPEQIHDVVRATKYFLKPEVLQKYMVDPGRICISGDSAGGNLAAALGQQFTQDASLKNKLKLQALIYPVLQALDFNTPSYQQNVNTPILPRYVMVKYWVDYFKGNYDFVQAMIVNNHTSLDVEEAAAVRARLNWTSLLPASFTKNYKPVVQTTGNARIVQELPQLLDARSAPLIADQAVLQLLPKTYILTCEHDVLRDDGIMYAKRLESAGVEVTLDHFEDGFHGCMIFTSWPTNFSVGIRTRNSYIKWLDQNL

[2] = target: T1, arylacetamide deacetylase-like 1 (AADACL1); experiment: HAG hydrolysis activity in lysates of JW480-treated human platelets; assay type: cell-based

% inhibition at 2 μM [2] [% inhibition at 2] | Compound | hydrolysis of exogenous HAG in human platelet lysate, blocked by JW480 [1]
– | CCCCCCCCCCCCCCCCOC[C@H](CO)OC(C)=O [HAG, 1-O-hexadecyl-2-O-acetyl-sn-glycerol] | AADACL1 also hydrolyzes HAG to its corresponding monoalkylglycerol ether (C16 MAGE) in human platelets
90 ± 0.56 | CC(C)c1ccccc1OC(=O)NCCc1ccc2ccccc2c1 [JW480] | –
